Source: ChEMBL document CHEMBL1201862, “PubChem BioAssay data set” (2004)
Where “and” joins values, the source holds several entries; their conditions need not be identical. Equal values may be shown once. Calls of active or inactive are those of the source.

Columns and labels:
[1] = target: T1, Polyadenylate-binding protein 1 (Homo sapiens, UniProt P11940); experiment: MLLE binding blockers, Cy5 peptide tracer – biochemical, fluorescence polarization, Cy5-PAM2 peptide, secondary, miRNA deadenylation inhibitor project, dose response (AID 602260); assay type: functional; conditions: read-out: IC50_Mean
T1 sequence (P11940 whole entry, the tested form may be a part): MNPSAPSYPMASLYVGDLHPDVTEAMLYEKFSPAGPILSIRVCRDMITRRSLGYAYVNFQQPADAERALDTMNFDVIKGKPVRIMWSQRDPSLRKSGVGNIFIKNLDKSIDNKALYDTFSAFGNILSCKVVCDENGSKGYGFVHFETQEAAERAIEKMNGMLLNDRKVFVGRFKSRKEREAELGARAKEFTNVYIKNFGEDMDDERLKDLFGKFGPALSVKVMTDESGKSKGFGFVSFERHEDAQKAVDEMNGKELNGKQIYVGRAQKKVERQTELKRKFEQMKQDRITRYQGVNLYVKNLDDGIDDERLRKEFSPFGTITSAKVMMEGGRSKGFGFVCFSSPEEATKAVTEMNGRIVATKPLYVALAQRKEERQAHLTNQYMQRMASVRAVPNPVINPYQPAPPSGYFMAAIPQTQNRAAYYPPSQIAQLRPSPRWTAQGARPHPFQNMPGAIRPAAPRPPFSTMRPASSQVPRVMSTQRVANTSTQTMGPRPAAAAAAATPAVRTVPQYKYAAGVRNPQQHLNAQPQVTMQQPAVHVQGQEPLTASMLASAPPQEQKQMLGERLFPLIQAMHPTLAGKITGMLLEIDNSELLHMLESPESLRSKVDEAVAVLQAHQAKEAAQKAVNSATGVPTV

[2] = target: T1, Polyadenylate-binding protein 1; experiment: MLLE domain peptide-binding blockers, IC50 – biochemical, fluorescence polarization, FITC-PAM2 peptide, dose response (AID 602259); assay type: functional; conditions: read-out: IC50_Mean
Cytochrome P450 2D6 = Cytochrome P450 2D6 (Homo sapiens, UniProt P10635);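 note: CYP2D6 member of a cytochrome P450 panel assay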
Sequence of Cytochrome P450 2D6 (P10635 whole entry): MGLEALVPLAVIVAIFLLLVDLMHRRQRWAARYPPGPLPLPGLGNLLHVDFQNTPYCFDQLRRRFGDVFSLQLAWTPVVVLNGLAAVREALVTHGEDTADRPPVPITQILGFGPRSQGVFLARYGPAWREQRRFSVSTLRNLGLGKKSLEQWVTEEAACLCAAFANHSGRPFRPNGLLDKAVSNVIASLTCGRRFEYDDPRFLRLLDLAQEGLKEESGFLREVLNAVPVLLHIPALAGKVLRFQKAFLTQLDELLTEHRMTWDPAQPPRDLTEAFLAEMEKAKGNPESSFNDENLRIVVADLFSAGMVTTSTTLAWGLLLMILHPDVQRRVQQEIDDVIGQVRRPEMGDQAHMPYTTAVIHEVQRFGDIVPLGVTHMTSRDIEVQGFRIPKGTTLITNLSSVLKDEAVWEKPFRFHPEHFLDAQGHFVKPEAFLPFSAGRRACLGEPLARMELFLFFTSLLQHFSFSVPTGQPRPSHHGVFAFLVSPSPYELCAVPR

Cytochrome P450 2C9 = Cytochrome P450 2C9 (Homo sapiens, UniProt P11712)
Sequence of Cytochrome P450 2C9 (P11712 whole entry): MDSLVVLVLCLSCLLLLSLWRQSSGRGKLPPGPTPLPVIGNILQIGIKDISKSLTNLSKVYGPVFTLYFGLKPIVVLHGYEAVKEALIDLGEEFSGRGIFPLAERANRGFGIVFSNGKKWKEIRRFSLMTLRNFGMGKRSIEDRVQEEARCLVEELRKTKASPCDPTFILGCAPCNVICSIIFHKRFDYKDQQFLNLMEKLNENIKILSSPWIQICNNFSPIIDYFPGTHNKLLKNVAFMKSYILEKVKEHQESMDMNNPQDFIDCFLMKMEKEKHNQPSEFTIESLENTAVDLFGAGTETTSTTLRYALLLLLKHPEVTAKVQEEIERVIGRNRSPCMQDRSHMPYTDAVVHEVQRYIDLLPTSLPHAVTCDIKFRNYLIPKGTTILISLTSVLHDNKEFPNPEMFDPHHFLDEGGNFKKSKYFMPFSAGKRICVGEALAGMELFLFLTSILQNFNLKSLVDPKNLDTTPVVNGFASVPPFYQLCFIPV

[3] = Luminescence Cell-Based Dose Response HTS to Identify Activators of Luciferase Translation or Activity in H4 […] Cells. [Related pubchem assays: 1829 (Project Summary), 1814 (Primary HTS)]; assay type: functional
H4 = experiment: Luminescence Cell-Based Dose Response HTS to Identify Activators of 5'UTR Stem-Loop Driven Prion Protein mRNA Translation in H4 Neuroglioblastoma Cells. [Related pubchem assays: 1829 (Project Summary), 1814 (Primary HTS)]; assay type: functional; conditions: Homo sapiens
[4] = target: T2, Heat shock factor protein 1 (Mus musculus, UniProt P38532); experiment: decrease of HSF1-responsive luciferase luminescence – cell-based, NIH3T3, dose retest, confirmation (AID 2382); assay type: functional;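 note: NIH3T3 fibroblasts with HSF1-driven luciferase reporter stressed by proteasome inhibitor MG132; luminescence from HSF1-driven luciferase expression after 8 hours of MG132 stress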
T2 sequence (P38532 whole entry): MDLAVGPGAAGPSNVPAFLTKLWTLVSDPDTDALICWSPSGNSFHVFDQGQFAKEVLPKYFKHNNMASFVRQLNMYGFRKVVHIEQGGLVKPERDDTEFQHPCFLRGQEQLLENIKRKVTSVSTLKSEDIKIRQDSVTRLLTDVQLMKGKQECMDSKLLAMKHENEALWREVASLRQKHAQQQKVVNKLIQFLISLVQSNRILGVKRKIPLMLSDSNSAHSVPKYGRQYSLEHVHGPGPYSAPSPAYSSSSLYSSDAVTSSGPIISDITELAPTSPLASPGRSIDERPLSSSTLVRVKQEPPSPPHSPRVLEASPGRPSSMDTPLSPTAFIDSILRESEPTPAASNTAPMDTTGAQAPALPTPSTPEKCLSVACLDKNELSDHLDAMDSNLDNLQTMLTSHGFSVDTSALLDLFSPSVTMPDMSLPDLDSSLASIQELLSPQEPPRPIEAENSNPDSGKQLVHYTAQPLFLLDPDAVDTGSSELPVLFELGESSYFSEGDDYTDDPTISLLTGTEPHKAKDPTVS

[5] = NIH-3T3 fibroblast cytotoxicity, dose response, cytotoxicity control, cell-based, fluorescence, Alamar Blue, secondary assay (AID 2327); assay type: functional;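 note: NIH-3T3 mouse fibroblasts cultured with fluconazole at 8 µg/mL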
[6] = fluconazole-exposed Candida albicans growth modulators – fluorescence, retest, confirmation (AID 2467); assay type: functional, cell-based
Cytochrome P450 2C19 = Cytochrome P450 2C19 (Homo sapiens, UniProt P33261); experiment: Cytochrome panel assay with activity outcomes. Panel member name: p450-cyp2c19 Compounds with AC50 equal or less than 10 uM are considered active; assay type: functional; conditions: read-out: AC50
Sequence of Cytochrome P450 2C19 (P33261 whole entry): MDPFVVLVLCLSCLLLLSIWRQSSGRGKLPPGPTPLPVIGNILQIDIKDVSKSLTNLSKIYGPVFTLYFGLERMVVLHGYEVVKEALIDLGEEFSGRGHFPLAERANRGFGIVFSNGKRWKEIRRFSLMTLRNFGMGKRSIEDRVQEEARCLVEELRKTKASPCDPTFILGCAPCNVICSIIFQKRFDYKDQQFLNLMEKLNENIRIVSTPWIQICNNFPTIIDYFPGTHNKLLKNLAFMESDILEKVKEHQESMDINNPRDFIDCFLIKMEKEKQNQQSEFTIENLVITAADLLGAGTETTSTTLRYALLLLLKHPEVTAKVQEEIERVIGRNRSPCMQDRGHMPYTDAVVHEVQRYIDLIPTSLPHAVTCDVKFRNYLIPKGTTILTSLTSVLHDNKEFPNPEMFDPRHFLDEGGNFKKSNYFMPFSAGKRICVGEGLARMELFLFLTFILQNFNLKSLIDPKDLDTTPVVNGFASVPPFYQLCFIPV

Cytochrome P450 3A4 = Cytochrome P450 3A4 (Homo sapiens, UniProt P08684);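 note: CYP3A4 tested as one member of a cytochrome P450 panel screen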
Sequence of Cytochrome P450 3A4 (P08684 whole entry): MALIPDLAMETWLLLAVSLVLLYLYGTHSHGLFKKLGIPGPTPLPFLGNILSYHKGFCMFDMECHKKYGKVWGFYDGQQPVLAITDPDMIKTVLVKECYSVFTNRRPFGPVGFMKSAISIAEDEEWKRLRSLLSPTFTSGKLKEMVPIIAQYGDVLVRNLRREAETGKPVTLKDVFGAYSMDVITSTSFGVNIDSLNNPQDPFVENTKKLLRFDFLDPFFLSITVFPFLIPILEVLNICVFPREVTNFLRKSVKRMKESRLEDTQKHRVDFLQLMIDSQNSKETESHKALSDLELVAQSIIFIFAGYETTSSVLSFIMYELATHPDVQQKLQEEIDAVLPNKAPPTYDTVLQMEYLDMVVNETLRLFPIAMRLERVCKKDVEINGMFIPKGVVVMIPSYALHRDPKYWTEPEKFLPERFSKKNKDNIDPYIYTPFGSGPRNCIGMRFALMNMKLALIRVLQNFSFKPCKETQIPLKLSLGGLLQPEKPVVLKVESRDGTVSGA

INS1 = experiment: INS-1E survival protection against cytokine death – cell-based, luminescence, retest, dose response (AID 449756); assay type: functional; conditions: Rattus norvegicus;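 note: cell death triggered by IL-1 beta plus TNF-alpha plus IFN-gamma mixture; protective hits raise ATP signal compared with cytokine alone wells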
Cytochrome P450 1A2 = target: T3, Cytochrome P450 1A2 (Homo sapiens, UniProt P05177);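 note: PubChem cytochrome P450 panel assay, CYP1A2 panel member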
T3 sequence (P05177 whole entry): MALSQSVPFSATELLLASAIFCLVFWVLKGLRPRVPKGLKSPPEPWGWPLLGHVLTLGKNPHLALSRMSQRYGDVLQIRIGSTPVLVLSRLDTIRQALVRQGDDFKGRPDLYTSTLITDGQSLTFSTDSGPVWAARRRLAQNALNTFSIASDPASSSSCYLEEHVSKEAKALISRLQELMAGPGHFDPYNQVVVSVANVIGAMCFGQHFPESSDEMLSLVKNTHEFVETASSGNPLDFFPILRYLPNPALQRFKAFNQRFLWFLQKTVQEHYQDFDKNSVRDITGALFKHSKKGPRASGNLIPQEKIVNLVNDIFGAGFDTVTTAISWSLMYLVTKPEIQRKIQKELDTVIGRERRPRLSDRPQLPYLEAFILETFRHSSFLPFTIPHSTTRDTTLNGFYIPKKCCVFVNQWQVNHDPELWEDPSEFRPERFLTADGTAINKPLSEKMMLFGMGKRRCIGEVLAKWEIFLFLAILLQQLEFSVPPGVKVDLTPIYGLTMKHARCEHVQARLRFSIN

[7] = luciferase reporter signal suppression in cells – H4 neuroglioma cells, luminescence, dose response (AID 1990); assay type: functional, cell-based
[8] = Luminescence Cell-Based Dose Response HTS to Identify Inhibitors of 5'UTR Stem-Loop Driven Prion Protein mRNA Translation in H4 Neuroglioblastoma Cells. [Related pubchem assays: 1827 (Project Summary), 1813 (Primary HTS)]; assay type: functional
[9] = alpha-synuclein stem-loop luciferase translation blockers – H4 neuroglioma cells, luminescence, confirmation (AID 1988); assay type: functional, cell-based
H9c2 = experiment: cells; assay type: functional, cell-based; conditions: Rattus norvegicus, H9c2, Myocardium;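 note: confirmatory concentration-response retest of ultra-high-throughput screening hits for modulation of myocardial damage; cell death induced by hydrogen peroxide oxidative stress; compound pretreatment for 60 min then peroxide exposure for 2 h; potency is for protecting the cells against peroxide damage rather than for killing them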
[10] = P. falciparum Dd2 growth inhibitors, dose response, SYBR Green, cherry-picked samples (AID 1159567); assay type: functional, cell-based
[11] = Trypanosoma cruzi growth suppression in host cells – NIH3T3 host cells, beta-gal luminescence, confirmation (AID 2044); assay type: functional, cell-based;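 note: intracellular parasites grown in NIH/3T3 mouse fibroblasts as host cells; luminescent beta-galactosidase reporter signal from transgenic T. cruzi replicating inside host cells; inhibitors lower the luminescence signal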
[12] = NIH3T3 cell viability loss – ATP luminescence, mouse fibroblasts, counter-screen, dose response (AID 2010); assay type: functional, cell-based;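 note: cells exposed to compound for about 90 hours before reading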
[13] = system: Streptococcus sp. 'group A'; experiment: Streptococcus pyogenes SK(-)GAS viability under kanamycin – luminescence, BacTiterGlo, confirmation, counter-screen for streptokinase expression inhibitor project, dose response (AID 1900); assay type: functional, organism-based
Streptokinase A = target: T4, Streptokinase A (Streptococcus pyogenes serotype M1, UniProt P10520); experiment: viability-normalized secreted streptokinase activity reduction – plasminogen activation absorbance, OD405, dose response (AID 1914); assay type: functional, Streptococcus pyogenes M1 GAS;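 note: secreted streptokinase activity via plasminogen activation per viability signal from cell pellet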
T4 sequence (P10520 whole entry): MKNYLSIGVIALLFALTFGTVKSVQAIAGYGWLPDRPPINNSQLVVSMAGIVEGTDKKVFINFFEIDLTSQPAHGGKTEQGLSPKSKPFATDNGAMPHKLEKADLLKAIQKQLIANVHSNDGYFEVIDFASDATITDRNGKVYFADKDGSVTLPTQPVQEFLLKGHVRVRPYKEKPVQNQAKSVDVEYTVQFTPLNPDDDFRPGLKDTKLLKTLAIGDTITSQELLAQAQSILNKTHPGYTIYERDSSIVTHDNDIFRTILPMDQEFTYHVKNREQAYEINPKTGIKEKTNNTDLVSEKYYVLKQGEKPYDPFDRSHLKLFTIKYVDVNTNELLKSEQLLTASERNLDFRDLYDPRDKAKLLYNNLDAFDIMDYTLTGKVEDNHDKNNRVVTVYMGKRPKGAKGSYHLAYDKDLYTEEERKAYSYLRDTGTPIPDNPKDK

Streptococcus = experiment: GAS UMAA2166 growth inhibition – luminescence, BacTiterGlo, counter-screen for streptokinase expression inhibitor project, dose response (AID 1915); assay type: functional, organism-based;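 note: potency for reduction of bacterial viability or growth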

S=C(Nc1ccc(Br)cc1Cl)Nn1cnnc1
IC50 [1]: > 66 µM (inactive) | IC50 [2]: > 66 µM (inactive)

COc1c2c(c3c(c1OC)c(=O)c1ccccc1n3C)OCO2
IC50 [1]: > 66 µM (inactive) | IC50 [2]: 41.7 µM (inactive)

O=C(/C=C\c1ccc(O)c(O)c1)OCCc1ccccc1
AC50 (Cytochrome P450 2D6): 39.8 µM (inconclusive) | AC50 (Cytochrome P450 2C9): 39.8 µM (inconclusive)

COc1ccc(-c2cc(C(=O)N3CCN(c4ccccn4)CC3)c3ccccc3n2)cc1
EC50 [3]: > 120 µM (not active) | EC50 (H4): 7.36 µM (active)

O=C(CNC(=O)C1CCCCC1)NC1=NCCS1
EC50 [4]: > 195 µM (not active) | IC50 [1]: > 66 µM (inactive) | IC50 [2]: > 66 µM (inactive)

CCOC(=O)C1=C(O)C(=O)N(Cc2ccccc2)C1
AC50 (Cytochrome P450 2D6): 31.6 µM (inconclusive)

Oc1c(Cl)c(Cl)c(Cl)c(Cl)c1Cl [PENTACHLOROPHENOL]
EC50 [5]: 75.3 µM (inconclusive) | EC50 [6]: 0.657 µM (active)

COc1cc(C(=S)N2CCOCC2)cc(OC)c1OS(=O)(=O)c1ccc(C)cc1
IC50 [1]: > 66 µM (inactive) | IC50 [2]: > 66 µM (inactive)

C(=N\N(c1ccccc1)c1ccccc1)/c1ccc2c(c1)OCO2
AC50 (Cytochrome P450 2C19): 2.51 µM (inconclusive) | AC50 (Cytochrome P450 2D6): 10 µM (inconclusive) | AC50 (Cytochrome P450 3A4): 15.8 µM (inconclusive) | AC50 (Cytochrome P450 2C9): 8.91 µM (inconclusive)

CCOC(=O)c1s/c(=N\C(=O)c2ccco2)n(C)c1C
EC50 [5]: > 150 µM (inactive) | EC50 [6]: 9.57 µM (active)

COc1ccc(CONS(=O)(=O)c2ccc(NC(C)=O)cc2)cc1Cl
AC50 (Cytochrome P450 2D6): 3.55 µM (inconclusive)

Cc1ccc(NC(=O)c2cc(S(=O)(=O)NCCC3=CCCCC3)ccc2F)cc1
AC50 (INS1): 2.96 µM (active)

NNC(=O)c1cc(-c2cccs2)nc2ccccc12
EC50 [5]: > 150 µM (inactive) | EC50 [6]: > 38 µM (not active)

CCCCC#Cc1nc(NC)c2ncn([C@@H]3O[C@@H](CO)[C@H](O)[C@H]3O)c2n1
AC50 (Cytochrome P450 2C19): 3.16 µM (inconclusive) | AC50 (Cytochrome P450 2D6): 31.6 µM (inconclusive) | AC50 (Cytochrome P450 1A2): 31.6 µM (inconclusive)

CC(=O)c1c(C)cc(C)c(CSc2nc(C)cc(=O)[nH]2)c1C
IC50 [1]: > 66 µM (inactive) | IC50 [2]: > 66 µM (inactive)

Cc1ccsc1C(=O)OCC(=O)Nc1sccc1C(N)=O
EC50 [5]: > 150 µM (inactive) | EC50 [6]: 5.44 µM (active)

COc1cc(C2c3sc(O)nc3SC3C(=O)N(c4ccc(Br)cc4)C(=O)C32)ccc1O (configuration not stated)
IC50 [1]: > 66 µM (inactive) | IC50 [2]: > 66 µM (inactive)

Cc1ccc(NC(=O)C2(NC(=O)c3cccc(N4C(=O)CSC4c4ccccc4)c3)CCCCC2)cc1 (configuration not stated)
EC50 [7]: > 120 µM (not active) | EC50 [8]: > 120 µM (not active) | EC50 [9]: > 120 µM (not active) | AC50 (Cytochrome P450 2D6): 1.12 µM (inconclusive)

Cc1nnsc1-c1onc(C)c1C(=O)Nc1cc(Cl)cc(Cl)c1
AC50 (INS1): 12.8 µM (active)

O=C1c2ccccc2NC(c2ccc(Cl)cc2Cl)N1O (configuration not stated)
IC50 (H9c2): > 79 µM (inactive) | AC50 (Cytochrome P450 2D6): 14.1 µM (inconclusive) | AC50 (Cytochrome P450 2C9): 25.1 µM (inconclusive)

CC(=O)Nc1cccc(NC(=O)Nc2cccc(F)c2)c1
EC50 [5]: > 150 µM (inactive) | EC50 [6]: 3.22 µM (active)

CCS(=O)(=O)N1CCCCN2[C@H](CO)[C@H](c3ccc(-c4cccc(C#N)c4)cc3)[C@H]2C1
AC50 [10]: 7.45 µM (active)

COc1cccc(CNC(=O)c2cc3c(c(-c4cccc(-c5ccncc5)c4)n2)[C@H](CCO)N([S@@+]([O-])C(C)(C)C)C3)c1
AC50 [10]: 4.29 µM (active)

N#Cc1c(N2CCCCC2)nc(N2CCCCC2)c2c1CCN(Cc1ccccc1)C2
EC50 [11]: 0.505 µM (active) | EC50 [12]: > 30 µM (not active) | AC50 (INS1): 12.7 µM (active)

O=C(N/N=C/c1cnc(N2CCCCC2)s1)c1ccc(C(F)(F)F)cc1
EC50 [7]: 12 µM (active) | EC50 [8]: > 120 µM (not active) | EC50 [9]: 9.6 µM (active) | AC50 (INS1): 4.54 µM (active)

OCCN1CCN(CC/C=C2\c3ccccc3Sc3ccc(C(F)(F)F)cc32)CC1 [E-FLUPENTIXOL]
AC50 (Cytochrome P450 2D6): 6.31 µM (inconclusive) and 31.6 µM (inconclusive)

COC(=O)C1=C(C)OC(N)=C(C#N)C1C1CCCCC1 (configuration not stated)
AC50 (Cytochrome P450 2D6): 31.6 µM (inconclusive) | AC50 (Cytochrome P450 1A2): 15.8 µM (inconclusive)

O=C(CSc1nnc(-c2cccnc2)o1)Nc1ccccc1F
IC50 [1]: > 66 µM (inactive) | IC50 [2]: > 66 µM (inactive)

O=C(NCc1cccnc1)C(=O)Nc1nc(C23CC4CC(CC(C4)C2)C3)cs1
AC50 (INS1): 35.3 µM (active)

O=C1/C(=C/c2cccnc2)SC(=S)N1c1ccc(F)cc1
IC50 [1]: > 66 µM (inactive) | IC50 [2]: > 66 µM (inactive)

CCN(CC)c1ccc(/C=N/NC(=S)NCc2ccccc2)c(O)c1
EC50 [13]: 49.2 µM (active) | EC50 (Streptokinase A): > 150 µM (not active) | EC50 (Streptococcus): > 150 µM (not active) | AC50 (INS1): 0.712 µM (active)

Cc1nc(NCCc2ccc(S(N)(=O)=O)cc2)c2c(C)c(C)sc2n1
AC50 (INS1): 5.52 µM (active)
